This note sets out measurements from patent US9822137B2, “Phosphonucleosides useful in the treatment of viral disorders” (UNIVERSITY COLLEGE CORK, priority 2012, dated 2017).

Where a name gives a salt, the structure may show the parent alone. Read-outs that look alike come from different tables or passages of the source.

Data set [1] is described as follows: chemical stability on storage / in solution. In kind it is physicochemical.
Data set [2] has as its target HIV-1 reverse transcriptase (Human immunodeficiency virus type 1 group M subtype B, UniProt P04585). Put plainly: cell-free HIV-1 RT assay with artificial homopolymeric template/primer and [3H]dNTP. In kind it is biochemical. The settings on record: for inhibition of incorporation of [3H]dATP in poly rU/oligo dA / inhibition of incorporation of [3H]dCTP in poly rI/oligo dC: 11a and 11b at 200 μg/mL. Here is the method: To prepare the template/primers for the RT experiments, 0.15 mM poly(U), poly(A), and poly(I) were mixed with an equal volume of 0.0375 mM oligo(dA), oligo(dT), and oligo(dC), respectively. The final concentrations of the templates in the RT reaction mixture were 0.015 mM. The reaction mixture (50 μl) contained 50 mM Tris.HCl (pH 7.8), 5 mM dithiothreitol, 300 mM glutathione, 500 μM EDTA, 150 mM KCl, 5 mM MgCl2, 1.25 μg of bovine serum albumin, an appropriate concentration of labeled (tritiated) substrate dTTP, dCTP, or dATP (2 μCi/assay), a fixed concentration of the template/primer poly(A).oligo(dT) (0.015 mM), poly(I).oligo(dC) (0.015 mM), and poly(U).oligo(dA) (0.015 mM), 0.06% Triton X-100, 10 μl of inhibitor solution (containing various concentrations of the compounds), and 1 μl of the RT preparation. The reaction mixtures were incubated at 37° C. for 30 min, at which time 100 μl of yeast RNA (1 mg/ml) and 1 ml of Na4P2O7 (0.02 M) in trichloroacetic acid (5% v/v) were added. The solutions were kept on ice for 30 min, after which the acid-insoluble material was washed and analyzed for radioactivity.

Where [3] appears, read: substrate [3H]dATP, template/primer poly rU.oligo dA, read-out: IC50, HIV-RT catalysed incorporation of [3H]dATP / polyrU.dA (converted).
Where [4] appears, read: substrate [3H]dCTP, template/primer poly rI.oligo dC, read-out: IC50, HIV-RT catalysed incorporation of [3H]dCTP / polyrI.dC (converted).
Where [5] appears, read: substrate [3H]dTTP, template/primer poly rA.oligo dT, read-out: IC50, HIV-RT catalysed incorporation of [3H]dTTP / polyrA.dT (converted).

Turning to `COC(=O)C(O[C@H]1CC[C@@H](n2ccc(N)nc2=O)C1)P(=O)(OC)OC` (relative stereo) [Compound 26c, cis-1-{4-[(Methoxycarbonyl)dimethylphosphonomethoxy]cyclopentan-1-yl}cytosine], the “stability in deuterated chloroform” value in data set [1] (16 hours at room temperature) was “Significant decomposition”.

Take `Nc1ccn([C@@H]2CC[C@H](OC(C(=O)O)P(=O)(O)O)C2)c(=O)n1` (relative stereo) [Compound 11c, cis-1-{4-[Carboxy(phosphono)methoxy]cyclopentan-1-yl}cytosine]: the melting point is more than 250 °C. Further, in data set [2] (setting [3]), the IC50 is 108 µM. Moreover, the IC50 in data set [2] (setting [4]) was 4.8 µM. For the same compound, in data set [2] (setting [5]), the IC50 was 231 µM.

On to `Cc1cn([C@@H]2CC[C@H](OC(C(=O)O)P(=O)(O)O)C2)c(=O)[nH]c1=O` (relative stereo) [Compound 11a, cis-1-{4-[Carboxy(phosphono)methoxy]cyclopentan-1-yl}thymine], for which the “inhibition of incorporation of [3H]dATP in poly rU/oligo dA” value in data set [2] is “no marked, if any inhibition”. Further, the “inhibition of incorporation of [3H]dCTP in poly rI/oligo dC” value (shortened to “inhibition of incorporation of [3H]dCTP”) in data set [2] is “no marked, if any inhibition”. The IC50 in data set [2] (setting [3]) is 307 µM; in data set [2] (setting [4]) it was more than 574 µM; in data set [2] (setting [5]), 0.431 µM.

Regarding `O=C(O)C(O[C@H]1CC[C@@H](n2ccc(=O)[nH]c2=O)C1)P(=O)(O)O` (single isomer, unassigned; (-)) [(−)-11b], the “inhibition of HIV-1-RT-catalysed incorporation of [3H]dTTP in poly rA/oligo dT” value in data set [2] is reported as “potent inhibitory activity”. Also, the values for the IC50 in data set [2] (setting [3]), in data set [2] (setting [4]) and in data set [2] (setting [5]) were 233 µM, more than 598 µM and 3.29 µM, respectively.

Take `Nc1ncnc2c1ncn2[C@H]1CC[C@@H](OC(C(=O)O)P(=O)(O)O)C1` (single isomer, unassigned; (+)) [(+)-11d]: the values for the IC50 in data set [2] (setting [3]), in data set [2] (setting [4]) and in data set [2] (setting [5]) were 33.6 µM, more than 560 µM and 487 µM, respectively.

With `COC(=O)C(O[C@H]1CC[C@@H](n2cc(C)c(=O)[nH]c2=O)C1)P(=O)(OC)OC` (single isomer, unassigned; (+)) [(+)26a], the melting point was in the range of 129 to 130 °C.

Regarding `Nc1ccn([C@H]2CC[C@@H](COP(=O)(O)OP(=O)(O)OP(=O)(O)O)O2)c(=O)n1` [ddCTP, reference compound], the “IC50, HIV-RT catalysed incorporation of [3H]dCTP / polyrI.dC” value in data set [2] (substrate [3H]dCTP, template/primer poly rI.oligo dC) stood at 5.0 ± 0.4 µg/mL.

Take `O=C(O)C(O[C@@H]1CC[C@H](n2ccc(=O)[nH]c2=O)C1)P(=O)(O)O` (single isomer, unassigned; (+)) [(+)-11b]: the results for the IC50 in data set [2] (setting [3]), in data set [2] (setting [4]) and in data set [2] (setting [5]) were 168 µM, more than 598 µM and 120 µM, respectively.

`COC(=O)C(O[C@H]1CC[C@@H](n2cnc3nc(N)nc(Cl)c32)C1)P(=O)(OC)OC` (relative stereo) [Compound N-7-26e, cis-2-Amino-7-{4-[(methoxycarbonyl)dimethylphosphonornethoxy]cyclopentan-1-yl}-6-chloropurine]: the “stability in solution” value in data set [1] (within 4 days in solution) is “significant decomposition”.

On to `Cc1cn([C@H]2CC[C@@H](OC(C(=O)O)P(=O)(O)O)C2)c(=O)[nH]c1=O` (single isomer, unassigned; (+)) (as salt: ammonium) [(+)-11a], for which the melting point was 225 to 227 °C.

Regarding `Cc1cn([C@@H]2CC[C@H](OC(C(=O)O)P(=O)(O)O)C2)c(=O)[nH]c1=O` (single isomer, unassigned; (-)) [(−)-11a], the IC50 is 167 µM in data set [2] (IC50, HIV-RT catalysed incorporation of [3H]dATP / polyrU.dA, substrate [3H]dATP, template/primer poly rU.oligo dA); more than 574 µM in data set [2] (IC50, HIV-RT catalysed incorporation of [3H]dCTP / polyrI.dC, substrate [3H]dCTP, template/primer poly rI.oligo dC); 0.431 µM in data set [2] (IC50, HIV-RT catalysed incorporation of [3H]dTTP / polyrA.dT, substrate [3H]dTTP, template/primer poly rA.oligo dT). Besides, the “inhibition of HIV-1-RT-catalysed incorporation of [3H]dTTP in poly rA/oligo dT” value in data set [2] was “potent inhibitory activity”.

As for `Nc1ncnc2c1ncn2[C@@H]1CC[C@H](OC(C(=O)O)P(=O)(O)O)C1` (single isomer, unassigned; (-)) [(−)-11d], the IC50 in data set [2] (setting [3]) was 0.202 µM; in data set [2] (setting [4]), more than 560 µM; in data set [2] (setting [5]) it was more than 560 µM.

`Cc1cn([C@@H]2CC[C@H](OC(C(=O)O)P(=O)(O)O)C2)c(=O)[nH]c1=O` (relative stereo) (as salt: ammonium) [Compound 11a, cis-1-{4-[Carboxy(phosphono)methoxy]cyclopentan-1-yl}thymine]: the melting point was in the range of 228 to 230 °C.

As for `Cc1cn([C@H]2CC[C@@H](OC(C(=O)O)P(=O)(O)O)C2)c(=O)[nH]c1=O` (single isomer, unassigned; (+)) [(+)-11a], the IC50 in data set [2] (setting [3]) is 101 µM; in data set [2] (setting [4]), more than 574 µM; in data set [2] (setting [5]), 37.3 µM.

`O=C(O)C(OC1CCC(n2cc(F)c(=O)[nH]c2=O)C1)P(=O)(O)O` (stereo not drawn) (as salt: ammonium) [Compound 41, 2-((3-(5-fluoro-2,4-dioxo-3,4-dihydropyrimidin-1(2H)-yl)cyclopentyl)oxy)-2-phosphonoacetic acid] gave a melting point of 243 °C.

`COC(=O)C(O[C@H]1CC[C@@H](n2cc(C)c(=O)[nH]c2=O)C1)P(=O)(OC)OC` (relative stereo) [26a] registered a melting point of 130 to 133 °C.

Compound `Nc1ncnc2c1ncn2[C@@H]1CC[C@H](OC(C(=O)O)P(=O)(O)O)C1` (relative stereo) (as salt: ammonium) [Compound 11d, cis-9-{4-[Carboxy(phosphono)methoxy]cyclopentan-1-yl}adenine] gave a melting point of 236 to 240 °C.

In turn, `Nc1ccn([C@H]2CC[C@@H](OC(C(=O)O)P(=O)(O)O)C2)c(=O)n1` (single isomer, unassigned; (+)) [(+)-11c] showed a melting point of more than 250 °C. In data set [2] (setting [3]), the IC50 was 54 µM. Also, in data set [2] (setting [4]), the IC50 was 402 µM. The IC50 in data set [2] (setting [5]) is 23.4 µM.

Consider `COC(=O)C(O[C@H]1C=C[C@@H](n2ccc(N)nc2=O)C1)P(=O)(OC)OC` (relative stereo) [Compound 24c, cis-1-{4-[(Methoxycarbonyl)dimethylphosphonomethoxy]cyclopent-2-en-1-yl}cytosine], for which, in data set [1] (36 hours at room temperature), the “stability in deuterated chloroform” value is “Significant decomposition”.

On to `O=C(O)C(O[C@H]1CC[C@@H](n2ccc(=O)[nH]c2=O)C1)P(=O)(O)O` (relative stereo) [Compound 11b, cis-1-{4-[Carboxy(phosphono)methoxy]cyclopentan-1-yl}uracil], for which, in data set [2], the “inhibition of incorporation of [3H]dATP in poly rU/oligo dA” value was “no marked, if any inhibition”. Further, the “inhibition of incorporation of [3H]dCTP” value in data set [2] is “no marked, if any inhibition”. Also, the figures for the IC50 in data set [2] (setting [3]), in data set [2] (setting [4]) and in data set [2] (setting [5]) were 221 µM, more than 598 µM and 3.89 µM, respectively.

On to `COC(=O)C(O[C@@H]1CC[C@H](n2cc(C)c(=O)[nH]c2=O)C1)P(=O)(OC)OC` (single isomer, unassigned; (-)) [(−)26a], for which the melting point was in the range of 133 to 135 °C.

Turning to `Cc1cn([C@@H]2CC[C@H](OC(C(=O)O)P(=O)(O)O)C2)c(=O)[nH]c1=O` (single isomer, unassigned; (-)) (as salt: ammonium) [(−)-11a], the melting point lay in the range of 229 to 230 °C.

As for `COC(=O)C(O[C@H]1CC[C@@H](n2ccc(=O)[nH]c2=O)C1)P(=O)(OC)OC` (relative stereo) [Compound 26b, cis-1-{4-[(methoxycarbonyl)dimethylphosphonomethoxy]cyclopentan-1-yl}uracil], the “stability on storage at room temperature” value in data set [1] (room temperature, extended periods, neat, solid or in solution) was “no noticeable decomposition”. Besides, the “purity by 1H NMR of aged sample” value in data set [1] (sample approximately 2 years old, stored at room temperature) turned out to be 95%.

As for `Nc1ncnc2c1ncn2[C@H]1CC[C@@H](COP(=O)(O)OP(=O)(O)OP(=O)(O)O)O1` [ddATP, reference compound], the “IC50, HIV-RT catalysed incorporation of [3H]dATP / polyrU.dA” value in data set [2] (substrate [3H]dATP, template/primer poly rU.oligo dA) worked out at 0.55 ± 0.09 µg/mL.

`Cc1cn([C@H]2C[C@H](N=[N+]=[N-])[C@@H](COP(=O)(O)OP(=O)(O)OP(=O)(O)O)O2)c(=O)[nH]c1=O` [AZT-TP, reference compound]: in data set [2] (substrate [3H]dTTP, template/primer poly rA.oligo dT), the “IC50, HIV-RT catalysed incorporation of [3H]dTTP / polyrA.dT” value amounted to 0.035 ± 0.016 µg/mL.

`Nc1ccn([C@@H]2CC[C@H](OC(C(=O)O)P(=O)(O)O)C2)c(=O)n1` (single isomer, unassigned; (-)) [(−)-11c]: the “inhibition of incorporation of [3H]dCTP” value in data set [2] is given as “strong inhibition”. The IC50 in data set [2] (setting [3]) is 51 µM; in data set [2] (setting [4]) it was 4.5 µM; in data set [2] (setting [5]) it was 180 µM.

The compound `Nc1ncnc2c1ncn2[C@H]1CC[C@@H](OC(C(=O)O)P(=O)(O)O)C1` (single isomer, unassigned; (+)) (as salt: ammonium) [(+)-11d] showed a melting point of 234 to 239 °C.

With `Nc1ncnc2c1ncn2[C@@H]1CC[C@H](OC(C(=O)O)P(=O)(O)O)C1` (single isomer, unassigned; (-)) (as salt: ammonium) [(−)-11d], the melting point was in the range of 237 to 241 °C.

A word on the melting point: it is the temperature of the solid-liquid transition.
